# PubChem BioAssay AID330 (DTP/NCI, 2004)
# Where “and” joins values, the source holds several entries; their conditions need not be identical. Equal entries are not always repeated. Toxic doses and inconclusive results are not listed.
# System: P388 leukemia ip, CD2F1 mice, survival T/C
# Experiment: NCI In Vivo Anticancer Drug Screen. Data for tumor model P388 Leukemia (intraperitoneal) in CD2F1 (CDF1) mice
# Settings: endpoint: median survival time, higher = longer survival
# How it was run: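 Mice carrying the transplanted tumor received test compound or vehicle. Survival was recorded in each group, and the value is the treated-group measurement divided by that of the vehicle-treated control group.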
# [1] = dose: 50.0 mg/kg/injection, schedule: Q01DX005 (ip), vehicle: Klucel (hydroxypropylcellulose) (HPC)
# [2] = dose: 100.0 mg/kg/injection, schedule: Q01DX005 (ip), vehicle: Klucel (hydroxypropylcellulose) (HPC)
# [3] = dose: 200.0 mg/kg/injection, schedule: Q01DX005 (ip), vehicle: Klucel (hydroxypropylcellulose) (HPC)
# [4] = dose: 100.0 mg/kg/injection, schedule: Q01DX009 (ip), vehicle: saline with Tween-80
# [5] = dose: 200.0 mg/kg/injection, schedule: Q01DX009 (ip), vehicle: saline with Tween-80
# [6] = dose: 50.0 mg/kg/injection, schedule: Q01DX009 (ip), vehicle: saline
# [7] = dose: 100.0 mg/kg/injection, schedule: Q01DX009 (ip), vehicle: saline
# [8] = dose: 200.0 mg/kg/injection, schedule: Q01DX009 (ip), vehicle: saline
# [9] = dose: 50.0 mg/kg/injection, schedule: Q01DX009 (ip), vehicle: saline with Tween-80
# [10] = dose: 100.0 mg/kg/injection, schedule: Q04DX002 (ip), vehicle: saline with Tween-80
# [11] = dose: 200.0 mg/kg/injection, schedule: Q04DX002 (ip), vehicle: saline with Tween-80
smiles,measurement,setting,value
CCN(CC)CCOC(=O)C(c1ccccc1)C1(O)CCCCC1 (centres undefined),T/C,"dose: 50.0 mg/kg/injection, schedule: Q01DX005 (ip), vehicle: saline",100 % of control
same,T/C,"dose: 100.0 mg/kg/injection, schedule: Q01DX005 (ip), vehicle: saline",107 % of control
CN(C)C(C#N)C(=O)c1ccccc1 (centres undefined),T/C,"dose: 25.0 mg/kg/injection, schedule: Q01DX009 (ip), vehicle: Klucel (hydroxypropylcellulose) (HPC)",107 % of control
same,T/C,"dose: 50.0 mg/kg/injection, schedule: Q01DX009 (ip), vehicle: Klucel (hydroxypropylcellulose) (HPC)",110 % of control
same,T/C,"dose: 100.0 mg/kg/injection, schedule: Q01DX009 (ip), vehicle: Klucel (hydroxypropylcellulose) (HPC)",104 % of control
CCOC(=O)Nc1cc2c(c(N)n1)N=C(c1ccc(N)cc1)CN2,T/C,"dose: 25.0 mg/kg/injection, schedule: Q01DX001 (ip), vehicle: saline",117 % of control
CCOC(=O)[C](=[N+]=[N-])[Hg][C](=[N+]=[N-])C(=O)OCC,T/C,"dose: 1.56 mg/kg/injection, schedule: Q04DX003 (ip), vehicle: saline",100 % of control
same,T/C,"dose: 3.12 mg/kg/injection, schedule: Q04DX003 (ip), vehicle: saline",101 % of control
same,T/C,"dose: 6.25 mg/kg/injection, schedule: Q04DX003 (ip), vehicle: saline",100 % of control
CC12OC1C(=O)C=CC2=O (centres undefined),T/C,"dose: 5.0 mg/kg/injection, schedule: Q04DX002 (ip), vehicle: saline with Tween-80",111 % of control
C=C(C)COC(=O)C1C2CC(C3OC23)C1C(=O)OCC(=C)C (centres undefined),T/C,[1],102 % of control
same,T/C,[2],104 % of control
same,T/C,[3],100 % of control
C=C(C)C1CC=C(CCCC(C)COC2OCC(OC(=O)/C(C)=C/CCC3=CCC(C(=C)C)CC3O)C(O)C2O)CC1 (centres undefined),T/C,"dose: 10.75 mg/kg/injection, schedule: Q01DX005 (ip), vehicle: Klucel (hydroxypropylcellulose) (HPC)",103 % of control
same,T/C,"dose: 21.5 mg/kg/injection, schedule: Q01DX005 (ip), vehicle: Klucel (hydroxypropylcellulose) (HPC)",114 % of control
same,T/C,"dose: 43.0 mg/kg/injection, schedule: Q01DX005 (ip), vehicle: Klucel (hydroxypropylcellulose) (HPC)",119 % of control
C1CC[N-]CC1.C1CC[N-]CC1.C1CC[N-]CC1.C1CC[N-]CC1.N#C[S-].N#C[S-].[Ni],T/C,"dose: 5.0 mg/kg/injection, schedule: Q04DX003 (ip), vehicle: saline with Tween-80",100 % of control
same,T/C,"dose: 10.0 mg/kg/injection, schedule: Q04DX003 (ip), vehicle: saline with Tween-80",100 % of control
O=S(=O)(F)c1ccc2nc(-c3cccc(Sc4ccccc4)c3)cc(Cl)c2c1,T/C,[4],100 % of control
same,T/C,[5],95 % of control
same,T/C,"dose: 400.0 mg/kg/injection, schedule: Q01DX009 (ip), vehicle: saline with Tween-80",95 % of control
CCCCC1(O)C(=O)N(c2ccccc2)N(c2ccccc2)C1=O,T/C,"dose: 60.0 mg/kg/injection, schedule: Q01DX005 (ip), vehicle: Klucel (hydroxypropylcellulose) (HPC)",102 % of control
same,T/C,"dose: 120.0 mg/kg/injection, schedule: Q01DX005 (ip), vehicle: Klucel (hydroxypropylcellulose) (HPC)",102 % of control
same,T/C,"dose: 240.0 mg/kg/injection, schedule: Q01DX005 (ip), vehicle: Klucel (hydroxypropylcellulose) (HPC)",96 % of control
CCCCOC(=O)/C=C/C(=O)N1CCN(C(=O)/C=C/C(=O)OCCCC)C(C)C1 (centres undefined),T/C,[1],100 % of control
same,T/C,[2],94 % of control
same,T/C,[3],96 % of control
Cc1ccc(NC(=S)SCc2ccco2)cc1Cl,T/C,"dose: 50.0 mg/kg/injection, schedule: Q01DX009 (ip), vehicle: suspension in saline",100 % of control
same,T/C,"dose: 100.0 mg/kg/injection, schedule: Q01DX009 (ip), vehicle: suspension in saline",103 % of control
same,T/C,"dose: 200.0 mg/kg/injection, schedule: Q01DX009 (ip), vehicle: suspension in saline",109 % of control
CC(=O)OCCn1c([N+](=O)[O-])cnc1/C=[N+](/C)[O-],T/C,[6],101 % of control
same,T/C,[7],102 % of control
same,T/C,[8],103 % of control
Nc1ccc(NCC2CCCN3CCCCC23)c2c(=O)c3ccccc3sc12 (centres undefined),T/C,"dose: 13.25 mg/kg/injection, schedule: Q01DX005 (ip), vehicle: saline with Tween-80",104 % of control
same,T/C,"dose: 26.5 mg/kg/injection, schedule: Q01DX005 (ip), vehicle: saline with Tween-80",101 % of control
same,T/C,"dose: 53.0 mg/kg/injection, schedule: Q01DX005 (ip), vehicle: saline with Tween-80",103 % of control
same,T/C,"dose: 90.0 mg/kg/injection, schedule: Q01DX005 (ip), vehicle: saline with Tween-80",94 % of control
same,T/C,"dose: 106.0 mg/kg/injection, schedule: Q01DX005 (ip), vehicle: saline with Tween-80",100 % of control
same,T/C,"dose: 180.0 mg/kg/injection, schedule: Q01DX005 (ip), vehicle: saline with Tween-80",94 % of control
same,T/C,"dose: 360.0 mg/kg/injection, schedule: Q01DX005 (ip), vehicle: saline with Tween-80",95 % of control
O=C(O)CC(NC(=O)CCl)C(=O)O (centres undefined),T/C,[6],99 % of control and 101 % of control
same,T/C,[7],100 % of control and 101 % of control
same,T/C,[8],101 % of control and 92 % of control
Clc1ccc(CN2COc3c(cc(Cl)c4cccnc34)C2)cc1,T/C,"dose: 100.0 mg/kg/injection, schedule: Q04DX003 (ip), vehicle: Klucel (hydroxypropylcellulose) (HPC)",88 % of control
same,T/C,"dose: 200.0 mg/kg/injection, schedule: Q04DX003 (ip), vehicle: Klucel (hydroxypropylcellulose) (HPC)",91 % of control
same,T/C,"dose: 400.0 mg/kg/injection, schedule: Q04DX003 (ip), vehicle: Klucel (hydroxypropylcellulose) (HPC)",106 % of control
COC(=O)c1cc(-c2ccc(Cl)cc2)n2c(N)nnc2n1,T/C,"dose: 60.0 mg/kg/injection, schedule: Q01DX005 (ip), vehicle: saline with Tween-80",100 % of control
same,T/C,"dose: 120.0 mg/kg/injection, schedule: Q01DX005 (ip), vehicle: saline with Tween-80",100 % of control
same,T/C,"dose: 240.0 mg/kg/injection, schedule: Q01DX005 (ip), vehicle: saline with Tween-80",104 % of control
COC(=O)c1nc(=S)[nH]c(C(=O)OC)c1C(=O)c1ccc(OC)cc1,T/C,"dose: 60.0 mg/kg/injection, schedule: Q01DX005 (ip), vehicle: saline",100 % of control
same,T/C,"dose: 120.0 mg/kg/injection, schedule: Q01DX005 (ip), vehicle: saline",96 % of control
same,T/C,"dose: 240.0 mg/kg/injection, schedule: Q01DX005 (ip), vehicle: saline",103 % of control
O=C(/C=C/c1cccs1)c1ccc(Nc2ccnc3cc(Cl)ccc23)cc1,T/C,"dose: 100.0 mg/kg/injection, schedule: Q01DX001 (ip), vehicle: saline with Tween-80",94 % of control
same,T/C,"dose: 200.0 mg/kg/injection, schedule: Q01DX001 (ip), vehicle: saline with Tween-80",98 % of control
same,T/C,"dose: 400.0 mg/kg/injection, schedule: Q01DX001 (ip), vehicle: saline with Tween-80",94 % of control
O=C1OC(=O)N2CSCC12 (centres undefined),T/C,[1],101 % of control
same,T/C,[2],96 % of control
same,T/C,[3],92 % of control
O=Cc1ccc(N=Nc2c(S(=O)(=O)O)cc3cc(S(=O)(=O)O)cc(O)c3c2O)cc1,T/C,[9],90 % of control
same,T/C,[4],90 % of control
same,T/C,[5],100 % of control
Cc1nnc(SCC2=C(C(=O)O)N3C(=O)C(NC(=O)Cn4cnnn4)C3SC2)s1 (centres undefined),T/C,"dose: 25.0 mg/kg/injection, schedule: Q01DX009 (ip), vehicle: saline",112 % of control
same,T/C,"dose: 400.0 mg/kg/injection, schedule: Q01DX009 (ip), vehicle: saline",112 % of control
COc1ccc2c3c1OC1c4[nH]ncc4C[C@H]4[C@@H](C2)N(C)CC[C@]314 (some centres undefined),T/C,[10],108 % of control
same,T/C,[11],99 % of control
c1ccc2nc(-c3cnc4ccccc4n3)cnc2c1,T/C,[10],95 % of control
same,T/C,[11],90 % of control
NC(N)=NO,T/C,"dose: 8.2 mg/kg/injection, schedule: Q01DX009 (ip), vehicle: water",110 % of control
same,T/C,"dose: 12.0 mg/kg/injection, schedule: Q01DX009 (ip), vehicle: water",105 % of control
same,T/C,"dose: 75.0 mg/kg/injection, schedule: Q01DX009 (ip), vehicle: saline",155 % of control
same,T/C,"dose: 150.0 mg/kg/injection, schedule: Q01DX009 (ip), vehicle: saline",170 % of control
N=C(N)SCCCCCCCCCCSC(=N)N,T/C,"dose: 12.5 mg/kg/injection, schedule: Q01DX009 (ip), vehicle: saline with Tween-80",100 % of control and 90 % of control
same,T/C,"dose: 25.0 mg/kg/injection, schedule: Q01DX009 (ip), vehicle: saline with Tween-80",98 % of control and 100 % of control
same,T/C,[9],106 % of control
COC(=O)/C=C1/Nc2c(n(C)c(=O)n(C)c2=O)NC1=O,T/C,"dose: 100.0 mg/kg/injection, schedule: Q04DX003 (ip), vehicle: saline",107 % of control
same,T/C,"dose: 200.0 mg/kg/injection, schedule: Q04DX003 (ip), vehicle: saline",94 % of control
same,T/C,"dose: 400.0 mg/kg/injection, schedule: Q04DX003 (ip), vehicle: saline",99 % of control
C#CCn1c(=O)c2cc3ccccc3nc2n(CC#C)c1=O,T/C,[1],96 % of control
same,T/C,[2],93 % of control
